Results from patent US11091472B2, “PI-kinase inhibitors with anti-infective activity” (The Board of Trustees of the Leland Stanford Junior …, priority 2016, dated 2021).

What was measured:
HRV = assay: Rhinovirus antiviral assay; assay type: cell-based; conditions: Human rhinovirus sp.; Table 5
EV71 = EV71 antiviral assay; assay type: cell-based; conditions: Enterovirus A, Table 5
PI4KIIIB = PI4KIIIB (Bos taurus (Bovine), UniProt O02810); assay: PI4KIIIβ kinase assay (immunoprecipitated HA-tagged enzyme, [γ-32P]-ATP); assay type: biochemical; conditions: kinase activity
PI3K p110g = PI3K p110g (Homo sapiens (Human), UniProt P48736); assay: PI3K p110g kinase assay; assay type: biochemical; conditions: kinase activity
Sequence of PI3K p110g (P48736 whole entry): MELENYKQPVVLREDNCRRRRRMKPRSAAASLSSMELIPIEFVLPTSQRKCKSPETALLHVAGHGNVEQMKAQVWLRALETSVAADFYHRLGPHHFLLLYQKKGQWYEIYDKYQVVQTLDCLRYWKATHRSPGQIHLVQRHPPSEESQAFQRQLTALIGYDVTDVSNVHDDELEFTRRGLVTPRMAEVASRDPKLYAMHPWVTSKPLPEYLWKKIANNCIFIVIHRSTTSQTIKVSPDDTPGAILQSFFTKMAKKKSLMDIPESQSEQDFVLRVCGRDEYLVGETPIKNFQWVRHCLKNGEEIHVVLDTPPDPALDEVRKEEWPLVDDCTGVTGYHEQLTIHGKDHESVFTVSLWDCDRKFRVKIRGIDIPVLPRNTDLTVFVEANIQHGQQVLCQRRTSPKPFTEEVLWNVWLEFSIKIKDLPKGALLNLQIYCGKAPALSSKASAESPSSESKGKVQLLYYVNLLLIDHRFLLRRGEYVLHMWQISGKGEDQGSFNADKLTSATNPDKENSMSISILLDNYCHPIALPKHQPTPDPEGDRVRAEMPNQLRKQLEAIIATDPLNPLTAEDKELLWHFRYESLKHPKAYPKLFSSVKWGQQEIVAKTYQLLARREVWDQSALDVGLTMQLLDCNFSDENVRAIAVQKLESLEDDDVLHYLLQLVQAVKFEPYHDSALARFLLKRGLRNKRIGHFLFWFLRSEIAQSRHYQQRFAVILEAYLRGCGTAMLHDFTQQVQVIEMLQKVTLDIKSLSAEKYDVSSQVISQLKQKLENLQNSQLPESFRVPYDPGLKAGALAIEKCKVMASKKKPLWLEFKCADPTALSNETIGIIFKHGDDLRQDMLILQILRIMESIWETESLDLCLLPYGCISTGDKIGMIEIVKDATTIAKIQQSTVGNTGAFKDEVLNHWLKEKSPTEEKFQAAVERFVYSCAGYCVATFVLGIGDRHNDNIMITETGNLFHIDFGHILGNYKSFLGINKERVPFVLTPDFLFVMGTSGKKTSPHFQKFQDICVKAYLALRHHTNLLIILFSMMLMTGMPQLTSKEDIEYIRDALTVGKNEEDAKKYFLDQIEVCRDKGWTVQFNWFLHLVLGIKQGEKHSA

PI4KIIIA = PI4KIIIA (Homo sapiens (Human), UniProt P42356); assay: PI4KIIIα kinase assay (immunoprecipitated HA-tagged enzyme, [γ-32P]-ATP); assay type: biochemical; conditions: kinase activity
Sequence of PI4KIIIA (P42356 whole entry): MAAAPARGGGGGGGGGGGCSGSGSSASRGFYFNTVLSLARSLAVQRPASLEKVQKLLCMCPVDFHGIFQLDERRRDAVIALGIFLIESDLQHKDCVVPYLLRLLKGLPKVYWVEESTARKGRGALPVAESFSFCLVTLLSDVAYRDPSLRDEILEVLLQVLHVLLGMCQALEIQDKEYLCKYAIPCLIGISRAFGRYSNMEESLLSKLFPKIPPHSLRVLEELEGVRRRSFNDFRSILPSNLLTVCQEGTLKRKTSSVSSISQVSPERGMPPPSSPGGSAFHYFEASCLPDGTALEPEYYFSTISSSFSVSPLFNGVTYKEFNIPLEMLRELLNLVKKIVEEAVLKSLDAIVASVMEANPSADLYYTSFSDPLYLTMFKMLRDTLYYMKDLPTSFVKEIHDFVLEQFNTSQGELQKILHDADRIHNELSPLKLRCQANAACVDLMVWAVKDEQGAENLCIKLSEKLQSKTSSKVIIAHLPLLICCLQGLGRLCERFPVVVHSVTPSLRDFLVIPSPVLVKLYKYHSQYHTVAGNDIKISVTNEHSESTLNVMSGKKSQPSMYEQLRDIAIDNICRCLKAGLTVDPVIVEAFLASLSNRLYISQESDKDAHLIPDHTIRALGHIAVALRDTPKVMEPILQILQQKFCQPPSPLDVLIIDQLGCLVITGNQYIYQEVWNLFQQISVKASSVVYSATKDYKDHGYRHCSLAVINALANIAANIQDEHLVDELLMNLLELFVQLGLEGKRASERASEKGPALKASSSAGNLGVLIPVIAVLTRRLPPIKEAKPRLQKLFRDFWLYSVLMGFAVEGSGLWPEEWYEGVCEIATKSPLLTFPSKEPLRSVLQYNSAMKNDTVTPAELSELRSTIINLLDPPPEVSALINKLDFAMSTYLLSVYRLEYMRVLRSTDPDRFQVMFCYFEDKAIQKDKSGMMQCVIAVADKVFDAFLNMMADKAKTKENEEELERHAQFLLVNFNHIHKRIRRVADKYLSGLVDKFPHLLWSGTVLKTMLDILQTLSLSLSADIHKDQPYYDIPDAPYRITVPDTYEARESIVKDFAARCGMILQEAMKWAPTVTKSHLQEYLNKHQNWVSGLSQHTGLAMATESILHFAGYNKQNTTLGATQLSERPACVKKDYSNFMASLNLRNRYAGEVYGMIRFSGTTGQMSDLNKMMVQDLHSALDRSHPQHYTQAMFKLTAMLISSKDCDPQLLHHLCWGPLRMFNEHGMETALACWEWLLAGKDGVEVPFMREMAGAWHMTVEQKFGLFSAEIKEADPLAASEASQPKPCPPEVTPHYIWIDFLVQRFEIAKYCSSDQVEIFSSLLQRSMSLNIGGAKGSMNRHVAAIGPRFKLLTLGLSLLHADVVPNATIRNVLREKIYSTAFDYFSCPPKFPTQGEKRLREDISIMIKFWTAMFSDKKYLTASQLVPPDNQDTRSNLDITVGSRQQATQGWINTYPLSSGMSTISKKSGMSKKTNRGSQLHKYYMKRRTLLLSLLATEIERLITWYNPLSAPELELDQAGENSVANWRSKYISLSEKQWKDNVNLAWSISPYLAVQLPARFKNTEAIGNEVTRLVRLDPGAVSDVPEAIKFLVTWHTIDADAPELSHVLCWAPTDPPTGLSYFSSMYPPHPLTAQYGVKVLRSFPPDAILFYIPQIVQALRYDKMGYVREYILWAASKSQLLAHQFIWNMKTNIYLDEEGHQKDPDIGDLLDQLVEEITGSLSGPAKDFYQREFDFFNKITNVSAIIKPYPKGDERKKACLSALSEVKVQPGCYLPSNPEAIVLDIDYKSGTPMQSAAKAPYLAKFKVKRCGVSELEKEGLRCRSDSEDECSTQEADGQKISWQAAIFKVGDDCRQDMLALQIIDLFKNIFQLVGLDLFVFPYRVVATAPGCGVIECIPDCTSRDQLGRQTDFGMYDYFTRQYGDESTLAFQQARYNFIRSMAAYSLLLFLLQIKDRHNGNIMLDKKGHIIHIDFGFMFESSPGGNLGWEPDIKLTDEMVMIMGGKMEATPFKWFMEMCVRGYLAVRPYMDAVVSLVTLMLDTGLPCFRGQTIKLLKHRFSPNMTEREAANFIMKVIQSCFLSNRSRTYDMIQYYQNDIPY

PI3KC2G = PI3KC2G (Homo sapiens (Human), UniProt O75747); assay: PI3KC2G kinase assay; assay type: biochemical; conditions: kinase activity
Sequence of PI3KC2G (O75747 whole entry): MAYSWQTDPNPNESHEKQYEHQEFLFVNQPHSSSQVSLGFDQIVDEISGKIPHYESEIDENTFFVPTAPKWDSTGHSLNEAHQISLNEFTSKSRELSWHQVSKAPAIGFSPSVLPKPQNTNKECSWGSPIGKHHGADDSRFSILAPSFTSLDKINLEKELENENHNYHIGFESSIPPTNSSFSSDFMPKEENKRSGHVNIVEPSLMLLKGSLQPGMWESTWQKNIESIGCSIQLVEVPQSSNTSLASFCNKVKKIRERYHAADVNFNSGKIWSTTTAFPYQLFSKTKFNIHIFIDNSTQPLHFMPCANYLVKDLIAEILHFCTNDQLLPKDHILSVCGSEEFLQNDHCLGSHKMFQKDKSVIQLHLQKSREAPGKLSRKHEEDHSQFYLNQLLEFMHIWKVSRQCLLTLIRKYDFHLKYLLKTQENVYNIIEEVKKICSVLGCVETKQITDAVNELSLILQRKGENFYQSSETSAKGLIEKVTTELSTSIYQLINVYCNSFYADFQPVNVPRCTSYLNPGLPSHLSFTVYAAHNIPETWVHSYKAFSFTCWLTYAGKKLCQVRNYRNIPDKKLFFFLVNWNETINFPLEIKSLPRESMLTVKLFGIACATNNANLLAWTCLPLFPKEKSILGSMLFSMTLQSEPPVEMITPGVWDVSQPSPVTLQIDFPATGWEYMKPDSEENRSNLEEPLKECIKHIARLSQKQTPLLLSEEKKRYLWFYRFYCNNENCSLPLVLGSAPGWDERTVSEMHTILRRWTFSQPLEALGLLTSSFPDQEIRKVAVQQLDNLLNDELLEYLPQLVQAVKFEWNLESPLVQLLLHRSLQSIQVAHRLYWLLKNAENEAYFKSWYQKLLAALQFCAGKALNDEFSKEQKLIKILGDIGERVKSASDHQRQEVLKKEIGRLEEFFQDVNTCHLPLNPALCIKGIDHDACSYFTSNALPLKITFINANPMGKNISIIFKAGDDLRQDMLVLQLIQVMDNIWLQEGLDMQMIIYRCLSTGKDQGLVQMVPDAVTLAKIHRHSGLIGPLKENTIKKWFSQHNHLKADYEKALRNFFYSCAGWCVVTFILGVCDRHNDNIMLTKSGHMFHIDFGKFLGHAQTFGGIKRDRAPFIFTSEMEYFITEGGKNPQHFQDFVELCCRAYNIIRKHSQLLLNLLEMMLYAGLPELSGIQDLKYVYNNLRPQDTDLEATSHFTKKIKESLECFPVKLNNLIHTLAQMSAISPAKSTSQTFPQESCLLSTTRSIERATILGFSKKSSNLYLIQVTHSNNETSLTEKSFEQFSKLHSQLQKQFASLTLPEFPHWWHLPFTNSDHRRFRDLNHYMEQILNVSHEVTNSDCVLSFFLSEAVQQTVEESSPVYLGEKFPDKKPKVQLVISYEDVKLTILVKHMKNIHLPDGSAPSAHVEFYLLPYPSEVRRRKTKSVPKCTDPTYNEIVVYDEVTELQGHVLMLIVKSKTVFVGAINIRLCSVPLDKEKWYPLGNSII
Protocol: PI-kinase assay: Compounds are tested in C.1.1. PI kinase assays as described by Shokat et al., “A membrane capture assay for lipid kinase activity.” Nat. Protoc.
Selected compounds of Table 1 and 2 were prepared and tested for inhibition activity in a variety of kinase assays.

Cell toxicity (CC50) = assay type: cell-based; conditions: human, HuH-7 cells

SMILES | EC50 (HRV) [nM] | EC50 (EV71) [nM] | IC50 (PI4KIIIB) [nM] | also measured
COc1ccc(-c2sc(NC(C)C3CCOCC3)nc2C)cc1S(=O)(=O)Nc1c(F)cccc1F (centres unmarked) [Compound S-321] | 1 to 100 | 1 to 100 |  | 
COc1ncc(-c2sc(NC(C)C3CCOCC3)nc2C)cc1S(=O)(=O)Nc1ccc(O)cc1Cl (centres unmarked) [Compound S-375] | 1 to 100 | 1 to 100 |  | 
COc1ccc(-c2sc(NC(C)C3CCOCC3)nc2C)cc1S(=O)(=O)Nc1c(F)cccc1Cl (centres unmarked) [Compound S-322] | 1 to 100 | 1 to 100 |  | 
COc1ncc(-c2sc(NC(C)C3CCOCC3)nc2C)cc1S(=O)(=O)Nc1ccccc1F (centres unmarked) [Compound S-339] | 1 to 100 | 1 to 100 |  | 
COc1ccc(-c2sc(NCC3CCCCC3)nc2C)cc1S(=O)(=O)NCC1CCCCC1 [Compound S-128] |  |  | 100 to 1000 | IC50 (PI3K p110g): > 10000 nM; IC50 (PI4KIIIA): > 10000 nM; IC50 (PI3KC2G): > 10000 nM
COc1ccc(-c2sc(NC(C)C3CCOCC3)nc2C)cc1S(=O)(=O)Nc1cccnc1C (centres unmarked) [Compound S-331] | 1 to 100 | 1 to 100 |  | 
COc1ccc(-c2sc(NC(C)C3CCOCC3)nc2C)cc1S(=O)(=O)Nc1ccc(O)cc1Cl (centres unmarked) [Compound S-318] | 1 to 100 | < 1 |  | 
COc1ccc(-c2sc(NCC3CCCCC3)nc2C)cc1S(=O)(=O)Nc1ccccc1F [Compound S-29] |  |  |  | CC50 (Cell toxicity (CC50)): > 10000 nM
COc1ccc(-c2sc(NC(=O)CC3CCOCC3)nc2C)cc1S(=O)(=O)Nc1ccccc1C [Compound S-228] |  |  |  | CC50 (Cell toxicity (CC50)): > 10000 nM
COc1ccc(-c2sc(NC(C)(C)C)nc2C)cc1S(=O)(=O)NC1CCNCC1 [Compound S-219] |  |  | < 100 | 
COc1ccc(-c2sc(NC3CCCCC3)nc2C)cc1S(=O)(=O)Nc1ccc(O)cc1C [Compound S-106] |  |  |  | CC50 (Cell toxicity (CC50)): > 10000 nM
COc1ncc(-c2sc(NC(C)C3CCOCC3)nc2C)cc1S(=O)(=O)Nc1ccc(O)cc1C (centres unmarked) [Compound S-340] | 1 to 100 | 1 to 100 |  | 
COc1ccc(-c2sc(NC(=O)CC3CCCC3)nc2C)cc1S(=O)(=O)N1CC[C@@H](O)C1 [Compound S-153] |  |  | < 100 | 
COc1ccc(NS(=O)(=O)c2cc(-c3sc(NC(=O)CC4CCCCC4)nc3C)ccc2OC)c(C)c1 [Compound S-85] |  |  |  | CC50 (Cell toxicity (CC50)): > 10000 nM
COc1ccc(-c2sc(NC(C)C3CCOCC3)nc2C)cc1S(=O)(=O)Nc1c(F)cncc1F (centres unmarked) [Compound S-333] | 100 to 1000 | 100 to 1000 |  | 
COc1ccc(-c2sc(NC(C)C3CCOCC3)nc2C)cc1S(=O)(=O)Nc1cccc(O)c1 (centres unmarked) [Compound S-320] | 1 to 100 | 1 to 100 |  | 
COc1ccc(-c2sc(NCC3CCCCC3)nc2C)cc1S(=O)(=O)NC1CCN(C2CCCC2)CC1 [Compound S-133] |  |  | < 100 | 
COc1ccc(-c2sc(N[C@H](C)C3CCCCC3)nc2C)cc1S(=O)(=O)N[C@H]1CC[C@@H](O)CC1 [Compound S-198] |  |  | 100 to 1000 | 
COc1ccc(-c2sc(NC(C)C3CCOCC3)nc2C)cc1S(=O)(=O)Nc1ncccc1F (centres unmarked) [Compound S-330] | 1000 to 10000 | 100 to 1000 |  | 
COc1ccc(-c2sc(N[C@H](C)C3CCCCC3)nc2C)cc1S(=O)(=O)N[C@H]1CCNC1 [Compound S-201] |  |  | < 100 | 
COc1ccc(-c2sc(NC3CCCCC3)nc2C)cc1S(=O)(=O)N[C@H]1CC[C@@H](O)CC1 [Compound S-167] |  |  | < 100 | 

SMILES | EC50 (HRV) [nM] | EC50 (EV71) [nM] | IC50 (PI4KIIIB) [nM] | also measured
COc1ncc(-c2sc(NC(C)C3CCOCC3)nc2C)cc1S(=O)(=O)Nc1ccc(F)cc1Cl (centres unmarked) [Compound S-337] | 100 to 1000 | 1 to 100 |  | 
COc1ccc(-c2sc(NC3CCCCC3)nc2C)cc1S(=O)(=O)NC1CCCC1 [Compound S-129] |  |  | 100 to 1000 | IC50 (PI3K p110g): > 10000 nM; IC50 (PI4KIIIA): > 10000 nM; IC50 (PI3KC2G): > 10000 nM
COc1ccc(-c2sc(N[C@H](C)C3CCCCC3)nc2C)cc1S(=O)(=O)NC1CCCNC1 (some centres unmarked) [Compound S-148] |  |  |  | IC50 (PI3K p110g): > 10000 nM
COc1ncc(-c2sc(NC(C)C3CCOCC3)nc2C)cc1S(=O)(=O)Nc1ccc(F)cc1C (centres unmarked) [Compound S-338] | 1 to 100 | 1 to 100 |  | 
COc1ccc(NS(=O)(=O)c2cc(-c3sc(NC4CCCCCC4)nc3C)ccc2OC)c(C)c1 [Compound S-89] |  |  |  | CC50 (Cell toxicity (CC50)): > 10000 nM
COc1ccc(-c2sc(NC(=O)C3CCCC3)nc2C)cc1S(=O)(=O)Nc1ccc(CO)cc1 [Compound S-41] |  |  | < 100 | 
COc1ccc(-c2sc(NCC3CCCCC3)nc2C)cc1S(=O)(=O)NC1CCN(C2CCCCC2)CC1 [Compound S-136] |  |  | < 100 | 
COc1ccc(-c2sc(NCCC3CCCCC3)nc2C)cc1S(=O)(=O)NC1CCNCC1 [Compound S-202] |  |  | < 100 | 
COc1ccc(-c2sc(NC(C)C3CCOCC3)nc2C)cc1S(=O)(=O)NC1CCNCC1 (centres unmarked) [Compound S-326] | 100 to 1000 | 1 to 100 |  | 
COc1ccc(-c2sc(NC(=O)C3CCCC3)nc2C)cc1S(=O)(=O)N[C@H]1CC[C@H](O)CC1 [Compound S-9] |  |  | < 100 | 
COc1ccc(-c2sc(NC3CCCCC3)nc2C)cc1S(=O)(=O)NC1CCCCCC1 [Compound S-131] |  |  | 100 to 1000 | IC50 (PI4KIIIA): > 10000 nM; IC50 (PI3KC2G): > 10000 nM
COc1ncc(-c2sc(NC(C)C3CCOCC3)nc2C)cc1S(=O)(=O)Nc1ccc(F)cc1F (centres unmarked) [Compound S-336] | 1 to 100 | 1 to 100 |  | 
COc1ccc(-c2sc(NC(C)C3CCOCC3)nc2C)cc1S(=O)(=O)Nc1ccc(C(=O)O)cc1 (centres unmarked) [Compound S-325] | 1000 to 10000 | 1000 to 10000 |  | 
COc1ccc(-c2sc(NC(=O)CC3CCCC3)nc2C)cc1S(=O)(=O)N[C@H]1CC[C@H](O)CC1 [Compound S-151] |  |  | < 100 | 
COc1ccc(-c2sc(NCC3CCCCC3)nc2C)cc1S(=O)(=O)NC1CC1 [Compound S-127] |  |  | 100 to 1000 | IC50 (PI3K p110g): > 10000 nM; IC50 (PI4KIIIA): > 10000 nM; IC50 (PI3KC2G): > 10000 nM
COc1ccc(-c2sc(NC(C)C3CCOCC3)nc2C)cc1S(=O)(=O)Nc1ccccc1C (centres unmarked) [Compound S-315] | 1 to 100 | 1 to 100 |  | 
COc1ccc(-c2sc(NC(=O)CC3CCCC3)nc2C)cc1S(=O)(=O)NCCCCO [Compound S-152] |  |  | < 100 | 
COc1ccc(-c2sc(NC(C)C3CCOCC3)nc2C)cc1S(=O)(=O)Nc1ccc(O)cc1C (centres unmarked) [Compound S-317] | 1 to 100 | 1 to 100 |  | 
COc1ccc(-c2sc(NCC(C)C)nc2C)cc1S(=O)(=O)N[C@H]1CC[C@@H](O)CC1 [Compound S-222] |  |  | < 100 | 
COc1ncc(-c2sc(NC(C)C3CCOCC3)nc2C)cc1S(=O)(=O)Nc1ccc(O)cc1F (centres unmarked) [Compound S-334] | 1 to 100 | 1 to 100 |  | 
COc1ncc(-c2sc(NC(C)C3CCOCC3)nc2C)cc1S(=O)(=O)Nc1ccccc1C (centres unmarked) [Compound S-335] | 1 to 100 | 1 to 100 |  | 

SMILES | EC50 (HRV) [nM] | EC50 (EV71) [nM] | IC50 (PI4KIIIB) [nM] | also measured
COc1ccc(-c2sc(NC(C)C3CCOCC3)nc2C)cc1S(=O)(=O)Nc1ccc(O)cc1 (centres unmarked) [Compound S-319] | 1 to 100 | 1 to 100 |  | 
COc1ccc(-c2sc(NC(C)C3CCOCC3)nc2C)cc1S(=O)(=O)NC1CCC(OC(C)=O)CC1 (centres unmarked) [Compound S-327] | 1 to 100 | 1 to 100 |  | 
COc1ccc(-c2sc(NCCC3CCCCC3)nc2C)cc1S(=O)(=O)NC1CCC(O)C1 (centres unmarked) [Compound S-214] |  |  |  | IC50 (PI3K p110g): > 10000 nM
COc1ccc(-c2sc(N[C@@H](C)C3CCCCC3)nc2C)cc1S(=O)(=O)N[C@H]1CC[C@@H](O)CC1 [Compound S-206] |  |  | 1000 to 10000 | 
COc1ccc(-c2sc(N[C@@H](C)C3CCCCC3)nc2C)cc1S(=O)(=O)N[C@H]1CC[C@H](O)CC1 [Compound S-183] |  |  | < 100 | 
COc1ccc(-c2sc(NC(=O)CC3CCOCC3)nc2C)cc1S(=O)(=O)Nc1ccccc1F [Compound S-230] |  |  | < 100 | 
COc1ccc(-c2sc(NCC3CCCCC3)nc2C)cc1S(=O)(=O)NC1CCNCC1 [Compound S-123] |  |  | < 100 | 
COc1ncc(-c2sc(NC(C)C3CCOCC3)nc2C)cc1S(=O)(=O)Nc1ccccc1Cl (centres unmarked) [Compound S-341] | 1 to 100 | 1 to 100 |  | 
COc1ccc(-c2sc(NC(=O)CC3CCCC3)nc2C)cc1S(=O)(=O)Nc1ccc(C)nc1 [Compound S-100] |  |  | 100 to 1000 | IC50 (PI3K p110g): > 10000 nM; IC50 (PI4KIIIA): > 10000 nM
COc1ncc(-c2sc(NC(=O)CC3CCOCC3)nc2C)cc1S(=O)(=O)Nc1ccc(F)cc1F [Compound S-258] |  |  | 1000 to 10000 | 
COc1ccc(-c2sc(NCC3CCCCC3)nc2C)cc1S(=O)(=O)NC1CCN(C2CC2)CC1 [Compound S-135] |  |  | < 100 | 
COc1ccc(-c2sc(NCC(C)C)nc2C)cc1S(=O)(=O)N[C@H]1CC[C@H](O)CC1 [Compound S-221] |  |  | < 100 | 
COc1ccc(-c2sc(NC(C)C3CCOCC3)nc2C)cc1S(=O)(=O)Nc1c(C)cccc1F (centres unmarked) [Compound S-323] | < 1 | < 1 |  | 
Cc1ccc(-c2sc(NC(=O)CC3CCCC3)nc2C)cc1S(=O)(=O)NC1CCNCC1 [Compound S-188] |  |  | < 100 | 
COc1ccc(-c2sc(NCC3CCCCC3)nc2C)cc1S(=O)(=O)NC1CCN(C(C)C)CC1 [Compound S-134] |  |  | < 100 | 
COc1ccc(-c2sc(NC(=O)CC3CCOCC3)nc2C)cc1S(=O)(=O)Nc1cccc(C)c1 [Compound S-226] |  |  | < 100 | 
COC(=O)c1ccc(NS(=O)(=O)c2cc(-c3sc(NC(C)C4CCOCC4)nc3C)ccc2OC)cc1 (centres unmarked) [Compound S-324] | 1 to 100 | 1 to 100 |  | 
COc1ccc(-c2sc(NC(=O)Cc3ccccc3)nc2C)cc1S(=O)(=O)Nc1ccc(O)cc1 [Compound S-49] |  |  | < 100 | 
COc1ccc(-c2sc(NC3CCCCC3)nc2C)cc1S(=O)(=O)N[C@H]1CC[C@H](O)CC1 [Compound S-166] |  |  | < 100 | 
COc1ccc(-c2sc(NC(C)C3CCOCC3)nc2C)cc1S(=O)(=O)Nc1ncccc1C (centres unmarked) [Compound S-329] | 1 to 100 | 1 to 100 |  | 
COc1ccc(-c2sc(N[C@H](C)C3CCCCC3)nc2C)cc1S(=O)(=O)N[C@@H]1CCNC1 [Compound S-197] |  |  | < 100 | 
